Where a SMILES comes first, the peptide text is derived from it. Bridges are numbered along the chain shown (N, C = ends). [ ]: non-standard residue; d: D form. The star is where a group is joined. DOTA = O=C(O)CN1CCN(CC(=O)O)CCN(CC(=O)*)CCN(CC(=O)O)CC1; Phe(4-Cl) = N[C@@H](Cc1ccc(Cl)cc1)C(=O)O; Phe(4-NH2) = Nc1ccc(C[C@H](N)C(=O)O)cc1; Pro(4S-NH2) = N[C@@H]1CN[C@H](C(=O)O)C1; Pentanesulfonyl = CCCCCS(=O)(=O)*; Propanoyl(3-NMe2) = CN(C)CCC(=O)*; Ser(ΨH,HPro) = O=C(O)[C@@H]1COCN1; Hyp = O=C(O)[C@@H]1C[C@@H](O)CN1; NMeE = CN[C@@H](CCC(=O)O)C(=O)O; Pentanoyl(4-Me) = CC(C)CCC(=O)*; Cha = N[C@@H](CC1CCCCC1)C(=O)O; Cit = NC(=O)NCCC[C@H](N)C(=O)O; dNva = CCC[C@@H](N)C(=O)O; NMeA = CN[C@@H](C)C(=O)O; Nle = CCCC[C@H](N)C(=O)O; dDap = NC[C@@H](N)C(=O)O; Nva = CCC[C@H](N)C(=O)O; Hexanoyl = CCCCCC(=O)*; Pentanoyl = CCCCC(=O)*
Columns and labels:
[1] = molecular target: T1, human uPAR (uPAR-Fc) (Homo sapiens, UniProt Q03405); test: Surface plasmon resonance (SPR) assay, single cycle kinetics; type: binding; conditions: pKD category for uPAR SPR activity assay; uPAR-Fc on Protein A-Chip, 25°C; read-out: pKD CAT (converted)
T1 construct: comprising amino acids Leu23-Arg303 according to UniProt entry Q03405.1; purchased R&D Systems 10378-UK-100
T1 sequence (Q03405 23-303): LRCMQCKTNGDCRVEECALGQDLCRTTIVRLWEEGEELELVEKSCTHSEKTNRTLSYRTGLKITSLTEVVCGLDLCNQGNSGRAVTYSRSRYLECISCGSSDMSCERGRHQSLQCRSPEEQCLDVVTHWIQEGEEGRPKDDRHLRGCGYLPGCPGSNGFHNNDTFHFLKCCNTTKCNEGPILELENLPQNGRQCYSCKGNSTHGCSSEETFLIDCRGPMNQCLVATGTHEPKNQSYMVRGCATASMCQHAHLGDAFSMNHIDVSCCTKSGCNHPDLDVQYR
Summary of the method: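 uPAR-Fc (Leu23-Arg303 extracellular domains, human IgG1 Fc) captured on Protein A chip to ~2000 RU; single-cycle kinetics at 25°C in HEPES running buffer pH 7.4 with 0.1% DMSO. KD from double-referenced sensorgrams fitted to 1:1 Langmuir model, reported as pKD.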

[2] = molecular target: T2, uPAR-expressing HEC-265 human endometrial adenocarcinoma cells (Homo sapiens, UniProt Q03405); test: Competitive FACS binding assay; conditions: pIC50 category of FACS binding
T2 construct: Cell surface uPAR-expressing HEC-265 human endometrial adenocarcinoma cells; host or cells: HEC-265
T2 sequence (Q03405 23-335): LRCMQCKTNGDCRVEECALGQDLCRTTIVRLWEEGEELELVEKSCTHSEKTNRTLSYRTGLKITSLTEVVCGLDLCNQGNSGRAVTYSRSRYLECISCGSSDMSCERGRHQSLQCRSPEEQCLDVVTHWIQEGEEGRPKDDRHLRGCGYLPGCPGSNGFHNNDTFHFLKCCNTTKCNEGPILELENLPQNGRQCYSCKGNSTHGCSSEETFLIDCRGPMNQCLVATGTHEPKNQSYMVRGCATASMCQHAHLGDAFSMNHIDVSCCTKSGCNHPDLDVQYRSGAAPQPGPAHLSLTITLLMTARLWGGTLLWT
Summary of the method: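 Competitive displacement of a 10 nM biotinylated peptide from HEC-265 cells (1 h, 4 °C, PBS/1% BSA), detected via APC-streptavidin by flow cytometry. pIC50 from four-parameter logistic fit of median fluorescence versus concentration.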

| SMILES | Kd [1] | IC50 [2] |
| --- | --- | --- |
| CCCCC(=O)N[C@H]1CSSC[C@@H](C(N)=O)NC(=O)[C@H](CCC)NC(=O)[C@H]([C@@H](C)CC)NC(=O)[C@H](C)N(C)C(=O)[C@@H]2CCCN2C(=O)[C@H](Cc2ccccc2)NC(=O)[C@H](Cc2ccc(O)cc2)NC(=O)[C@H](CCCCNC(=O)CN2CCN(CC(=O)O)CCN(CC(=O)O)CCN(CC(=O)O)CC2)NC(=O)[C@H](CCCNC(N)=O)NC1=O [UPAR-316, Pent-[Cys-Cit-Lys(DOTA)-Tyr-Phe-Pro-Nma-Ile-Nva-Cys]-NH2] (Pentanoyl-C[Cit]K(DOTA)YFP[NMeA]I[Nva]C-NH2; disulfide 1-10) | 1.58 to 10 nM | 12.6 to 31.6 nM |
| CCCCCC(=O)N[C@H](C(=O)N[C@@H](CC(C)C)C(=O)N[C@H]1CSSC[C@@H](C(N)=O)NC(=O)[C@H](CC(C)C)NC(=O)[C@H]([C@@H](C)CC)NC(=O)[C@H](C)NC(=O)[C@@H]2CCCN2C(=O)[C@H](Cc2ccccc2)NC(=O)[C@H](Cc2ccc(O)cc2)NC(=O)[C@H](CC(C)C)NC(=O)[C@H](CC(=O)O)NC1=O)[C@@H](C)O [UPAR-318, Hex-Thr-Leu-[Cys-Asp-Leu-Tyr-Phe-Pro-Ala-Ile-Leu-Cys]-NH2] (Hexanoyl-TLCDLYFPAILC-NH2; disulfide 3-12) | < 1.58 nM | ≤ 10 nM |
| CC[C@H](C)[C@@H]1NC(=O)[C@@H](C)NC(=O)[C@H](C)NC(=O)[C@H](Cc2ccccc2)NC(=O)[C@H](Cc2ccc(O)cc2)NC(=O)[C@H](CCC(N)=O)NC(=O)[C@H](CCCNC(N)=O)NC(=O)[C@@H](NC(=O)CCC(C)C)CSSC[C@@H](C(N)=O)NC(=O)[C@H](CC(C)C)NC1=O [UPAR-319, iHex-[Cys-Cit-Gln-Tyr-Phe-Ala-ala-Ile-Leu-Cys]-NH2] ({Pentanoyl(4-Me)}-C[Cit]QYFA[dA]ILC-NH2; disulfide 1-10) | 10 to 100 nM | 39.8 to 100 nM |
| CCCCC(=O)N[C@H]1CSSC[C@@H](C(N)=O)NC(=O)[C@H](CCC)NC(=O)[C@H]([C@@H](C)CC)NC(=O)[C@@H]2C[C@@H](O)CN2C(=O)[C@@H]2CCCN2C(=O)[C@H](Cc2ccccc2)NC(=O)[C@H](Cc2ccc(N)cc2)NC(=O)[C@H](CCCCNC(=O)CN2CCN(CC(=O)O)CCN(CC(=O)O)CCN(CC(=O)O)CC2)NC(=O)[C@H](CCCNC(N)=O)NC1=O [UPAR-320, Pent-[Cys-Cit-Lys(DOTA)-Aph-Phe-Pro-Hyp-Ile-Nva-Cys]-NH2] (Pentanoyl-C[Cit]K(DOTA)[Phe(4-NH2)]FP[Hyp]I[Nva]C-NH2; disulfide 1-10) | < 1.58 nM | ≤ 10 nM |
| CC[C@H](C)[C@@H]1NC(=O)[C@@H](C)NC(=O)[C@@H]2COCN2C(=O)[C@H](Cc2ccccc2)NC(=O)[C@H](Cc2ccc(O)cc2)NC(=O)[C@H](CCC(N)=O)NC(=O)[C@H](CCCNC(N)=O)NC(=O)[C@@H](NC(=O)CCC(C)C)CSSC[C@@H](C(N)=O)NC(=O)[C@H](CC(C)C)NC1=O [UPAR-321, iHex-[Cys-Cit-Gln-Tyr-Phe-Oxa-ala-Ile-Leu-Cys]-NH2] ({Pentanoyl(4-Me)}-C[Cit]QYF[Ser(ΨH,HPro)][dA]ILC-NH2; disulfide 1-10) | 1.58 to 10 nM | ≤ 10 nM |
| CCCCC(=O)N[C@H]1CSSC[C@@H](C(N)=O)NC(=O)[C@H](CCC)NC(=O)[C@H]([C@@H](C)CC)NC(=O)[C@@H](CCC)NC(=O)[C@@H]2CCCN2C(=O)[C@H](Cc2ccccc2)NC(=O)[C@H](Cc2ccc(O)cc2)NC(=O)[C@H](CCC(N)=O)NC(=O)[C@H](CCCNC(=N)N)NC1=O [UPAR-322, Pent-[Cys-Arg-Gln-Tyr-Phe-Pro-nva-Ile-Nva-Cys]-NH2] (Pentanoyl-CRQYFP[dNva]I[Nva]C-NH2; disulfide 1-10) | 1.58 to 10 nM | 12.6 to 31.6 nM |
| CCCC[C@@H]1NC(=O)[C@H](CCCNC(=N)N)NC(=O)[C@@H](NC(=O)[C@H](CC(C)C)NC(=O)[C@H](CC(=O)O)NC(C)=O)CSSC[C@H](C(N)=O)NC(=O)[C@H](CC(C)C)NC(=O)[C@H]([C@@H](C)CC)NC(=O)[C@H](C)NC(=O)[C@@H]2CCCN2C(=O)[C@H](Cc2ccccc2)NC(=O)[C@H](Cc2ccc(O)cc2)NC1=O [UPAR-323, Ac-Asp-Leu-[Cys-Arg-Nle-Tyr-Phe-Pro-Ala-Ile-Leu-cys]-NH2] (Ac-DLCR[Nle]YFPAIL[dC]-NH2; disulfide 3-12) | 1.58 to 10 nM | 12.6 to 31.6 nM |
| CCCCC(=O)N[C@H]1CSSC[C@@H](C(N)=O)NC(=O)[C@H](CCC)NC(=O)[C@H]([C@@H](C)CC)NC(=O)[C@@H]2C[C@@H](O)CN2C(=O)[C@@H]2CCCN2C(=O)[C@H](Cc2ccccc2)NC(=O)[C@H](Cc2c[nH]cn2)NC(=O)[C@H](CCCCNC(=O)CN2CCN(CC(=O)O)CCN(CC(=O)O)CCN(CC(=O)O)CC2)NC(=O)[C@H](CCCNC(N)=O)NC1=O [UPAR-324, Pent-[Cys-Cit-Lys(DOTA)-His-Phe-Pro-Hyp-Ile-Nva-Cys]-NH2] (Pentanoyl-C[Cit]K(DOTA)HFP[Hyp]I[Nva]C-NH2; disulfide 1-10) | < 1.58 nM | ≤ 10 nM |
| CCCCC(=O)N[C@H]1CSSC[C@@H](C(N)=O)NC(=O)[C@H](CCC)NC(=O)[C@H]([C@@H](C)CC)NC(=O)[C@@H]2C[C@H](N)CN2C(=O)[C@@H]2CCCN2C(=O)[C@H](Cc2ccccc2)NC(=O)[C@H](Cc2ccc(O)cc2)NC(=O)[C@H](CCCCNC(=O)CN2CCN(CC(=O)O)CCN(CC(=O)O)CCN(CC(=O)O)CC2)NC(=O)[C@H](CCCNC(N)=O)NC1=O [UPAR-325, Pent-[Cys-Cit-Lys(DOTA)-Tyr-Phe-Pro-4Ap-Ile-Nva-Cys]-NH2] (Pentanoyl-C[Cit]K(DOTA)YFP[Pro(4S-NH2)]I[Nva]C-NH2; disulfide 1-10) | < 1.58 nM | ≤ 10 nM |
| CC(C)CCC(=O)N[C@H]1CSSC[C@@H](C(N)=O)NC(=O)[C@H](CC(C)C)NC(=O)[C@H](CC2CCCCC2)NC(=O)[C@@H](C)NC(=O)[C@@H]2CCCN2C(=O)[C@H](Cc2ccccc2)NC(=O)[C@H](Cc2ccc(O)cc2)NC(=O)[C@H](CCC(N)=O)NC(=O)[C@H](CCCNC(N)=O)NC1=O [UPAR-326, iHex-[Cys-Cit-Gln-Tyr-Phe-Pro-ala-Cha-Leu-Cys]-NH2] ({Pentanoyl(4-Me)}-C[Cit]QYFP[dA][Cha]LC-NH2; disulfide 1-10) | < 1.58 nM | ≤ 10 nM |
| CCCCC(=O)N[C@H]1CSSC[C@@H](C(N)=O)NC(=O)[C@H](CCC)NC(=O)[C@H]([C@@H](C)CC)NC(=O)[C@H](CCC(=O)O)N(C)C(=O)[C@@H]2CCCN2C(=O)[C@H](Cc2ccccc2)NC(=O)[C@H](Cc2ccc(O)cc2)NC(=O)[C@H](CCCCNC(=O)CN2CCN(CC(=O)O)CCN(CC(=O)O)CCN(CC(=O)O)CC2)NC(=O)[C@H](CCCNC(N)=O)NC1=O [UPAR-327, Pent-[Cys-Cit-Lys(DOTA)-Tyr-Phe-Pro-Nme-Ile-Nva-Cys]-NH2] (Pentanoyl-C[Cit]K(DOTA)YFP[NMeE]I[Nva]C-NH2; disulfide 1-10) | > 100 nM | ≥ 126 nM |
| CCCCCS(=O)(=O)N[C@H]1CSSC[C@@H](C(N)=O)NC(=O)[C@H](CCC)NC(=O)[C@H]([C@@H](C)CC)NC(=O)[C@@H]2C[C@@H](O)CN2C(=O)[C@@H]2CCCN2C(=O)[C@H](Cc2ccccc2)NC(=O)[C@H](Cc2ccc(O)cc2)NC(=O)[C@H](CCC(N)=O)NC(=O)[C@H](CCCNC(=N)N)NC1=O [UPAR-328, PentylSO2-[Cys-Arg-Gln-Tyr-Phe-Pro-Hyp-Ile-Nva-Cys]-NH2] (Pentanesulfonyl-CRQYFP[Hyp]I[Nva]C-NH2; disulfide 1-10) | < 1.58 nM | ≤ 10 nM |
| CCCCC(=O)N[C@H]1CSSC[C@@H](C(N)=O)NC(=O)[C@H](CCC)NC(=O)[C@H]([C@@H](C)CC)NC(=O)[C@@H](CO)NC(=O)[C@@H]2CCCN2C(=O)[C@H](Cc2ccccc2)NC(=O)[C@H](Cc2ccc(O)cc2)NC(=O)[C@H](CCC(N)=O)NC(=O)[C@H](CCCNC(=N)N)NC1=O [UPAR-329, Pent-[Cys-Arg-Gln-Tyr-Phe-Pro-ser-Ile-Nva-Cys]-NH2] (Pentanoyl-CRQYFP[dS]I[Nva]C-NH2; disulfide 1-10) | < 1.58 nM | ≤ 10 nM |
| CCCCC(=O)N[C@H]1CSSC[C@@H](C(N)=O)NC(=O)[C@H](CCC)NC(=O)[C@H]([C@@H](C)CC)NC(=O)[C@@H](CN)NC(=O)[C@@H]2CCCN2C(=O)[C@H](Cc2ccccc2)NC(=O)[C@H](Cc2ccc(O)cc2)NC(=O)[C@H](CCC(N)=O)NC(=O)[C@H](CCCNC(=N)N)NC1=O [UPAR-330, Pent-[Cys-Arg-Gln-Tyr-Phe-Pro-dap-Ile-Nva-Cys]-NH2] (Pentanoyl-CRQYFP[dDap]I[Nva]C-NH2; disulfide 1-10) | < 1.58 nM | ≤ 10 nM |
| CC[C@H](C)[C@@H]1NC(=O)[C@@H](C)NC(=O)[C@@H]2CCCN2C(=O)[C@H](Cc2ccc(Cl)cc2)NC(=O)[C@H](Cc2ccc(O)cc2)NC(=O)[C@H](CCC(N)=O)NC(=O)[C@H](CCCNC(N)=O)NC(=O)[C@@H](NC(=O)CCC(C)C)CSSC[C@@H](C(N)=O)NC(=O)[C@H](CC(C)C)NC1=O [UPAR-332, iHex-[Cys-Cit-Gln-Tyr-Pcf-Pro-ala-Ile-Leu-Cys]-NH2] ({Pentanoyl(4-Me)}-C[Cit]QY[Phe(4-Cl)]P[dA]ILC-NH2; disulfide 1-10) | < 1.58 nM | ≤ 10 nM |
| CC[C@H](C)[C@@H]1NC(=O)[C@@H](C)NC(=O)[C@@H]2CCCN2C(=O)[C@H](Cc2ccccc2)NC(=O)[C@H](Cc2ccc(O)cc2)NC(=O)[C@H](CCC(N)=O)NC(=O)[C@H](CCCNC(N)=O)NC(=O)[C@@H](NC(=O)CCN(C)C)CSSC[C@@H](C(N)=O)NC(=O)[C@H](CC(C)C)NC1=O [UPAR-333, Dmba-[Cys-Cit-Gln-Tyr-Phe-Pro-ala-Ile-Leu-Cys]-NH2] ({Propanoyl(3-NMe2)}-C[Cit]QYFP[dA]ILC-NH2; disulfide 1-10) | > 100 nM | 39.8 to 100 nM |

Source: patent EP4610269A1, “UROKINASE PLASMINOGEN ACTIVATOR SURFACE RECEPTOR (UPAR) LIGANDS FOR DIAGNOSTIC OR THERAPEUTIC USE” (3B Pharmaceuticals GmbH, priority 2024, dated 2025)
